Source: PubChem BioAssay (NCI)
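Interpolation was linear, between the two tested concentrations surrounding the appropriate level; five concentrations were tested over 48 hours in 96-well plates. GI50: concentration for 50% inhibition of growth. TGI is the concentration that stops growth completely.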

What was measured:
Assay in all cases: inhibition of tumour cell growth, NCI panel, 48 h
[1] = system: HT29 colon
[2] = system: K-562 leukemia
[3] = system: A498 renal
[4] = system: SK-OV-3 ovarian
[5] = system: U251 CNS
[6] = system: SK-MEL-2 melanoma
[7] = system: NCI-H23 lung
[8] = system: HOP-62 NSCLC
[9] = system: CCRF-CEM leukemia
[10] = system: KM12 colon
[11] = system: SF-268 CNS
[12] = system: EKVX NSCLC
[13] = system: OVCAR-4 ovarian
[14] = system: IGROV1 ovarian
[15] = system: MCF7 breast
[16] = system: NCI/ADR-RES ovarian
[17] = system: TK-10 renal
[18] = system: UO-31 renal
[19] = system: RXF 393 renal
[20] = system: HS 578T breast
[21] = system: M14 melanoma
[22] = system: NCI-H226 lung
[23] = system: CAKI-1 renal
[24] = system: HL-60(TB) leukemia
[25] = system: 786-0 renal
[26] = system: T-47D breast
[27] = system: UACC-257 melanoma
[28] = system: UACC-62 melanoma
[29] = system: SW-620 colon
[30] = system: SN12C renal
[31] = system: MDA-MB-231 breast
[32] = system: A549 NSCLC
[33] = system: MOLT-4 leukemia
[34] = system: HOP-92 NSCLC
[35] = system: HCT-116 colon
[36] = system: NCI-H460 lung
[37] = system: DU-145 prostate
[38] = system: HCC-2998 colon
[39] = system: SF-295 CNS
[40] = system: SK-MEL-5 melanoma
[41] = system: COLO 205 colon
[42] = system: SK-MEL-28 melanoma
[43] = system: PC-3 prostate
[44] = system: HCT-15 colon
[45] = system: SF-539 CNS
[46] = system: OVCAR-8 ovarian
[47] = system: SNB-19 CNS
[48] = system: BT-549 breast
[49] = system: NCI-H522 lung
[50] = system: OVCAR-5 ovarian
[51] = system: SR leukemia
[52] = system: RPMI-8226 leukemia
[53] = system: LOX IMVI melanoma
[54] = system: MDA-MB-435
[55] = system: ACHN renal
[56] = system: MALME-3M melanoma
[57] = system: OVCAR-3 ovarian
[58] = system: SNB-75 CNS

Compound: COc1ccc(C(=O)c2c(N)c(C#N)cn2-c2cccc(OC)c2)cc1
- GI50 [1]: 2640 nM
- TGI [1]: 20.2 µM
- GI50 [2]: 707 nM
- TGI [2]: 8.57 µM
- GI50 [3]: 2.73 µM
- TGI [3]: 7.8 µM
- GI50 [4]: 4090 nM
- TGI [4]: > 100 µM
- GI50 [5]: 3450 nM
- TGI [5]: > 100 µM
- GI50 [6]: 4580 nM
- TGI [6]: > 100 µM
- GI50 [7]: 5.61 µM
- TGI [7]: > 100 µM
- GI50 [8]: 4120 nM
- TGI [8]: > 100 µM
- GI50 [9]: 2680 nM
- TGI [9]: 9.83 µM
- GI50 [10]: 4170 nM
- TGI [10]: > 100 µM
- GI50 [11]: 5.65 µM
- TGI [11]: > 100 µM
- GI50 [12]: 4680 nM
- TGI [12]: > 100 µM
- GI50 [13]: 18 µM
- TGI [13]: > 100 µM
- GI50 [14]: 5000 nM
- TGI [14]: > 100 µM
- GI50 [15]: 3070 nM
- TGI [15]: > 100 µM
- GI50 [16]: 2350 nM
- TGI [16]: > 100000 nM
- GI50 [17]: 6.14 µM
- TGI [17]: > 100 µM
- GI50 [18]: 5420 nM
- TGI [18]: > 100 µM
- GI50 [19]: 2050 nM
- TGI [19]: 6.1 µM
- GI50 [20]: 2420 nM
- TGI [20]: 8.66 µM
- GI50 [21]: 2510 nM
- TGI [21]: > 100 µM
- GI50 [22]: 4500 nM
- TGI [22]: > 100 µM
- GI50 [23]: 3200 nM
- TGI [23]: > 100 µM
- GI50 [24]: 2010 nM
- TGI [24]: 4910 nM
- GI50 [25]: 4640 nM
- TGI [25]: > 100 µM
- GI50 [26]: 3720 nM
- TGI [26]: > 100 µM
- GI50 [27]: 9.48 µM
- TGI [27]: > 100 µM
- GI50 [28]: 3220 nM
- TGI [28]: > 100 µM
- GI50 [29]: 2850 nM
- TGI [29]: > 100 µM
- GI50 [30]: 5640 nM
- TGI [30]: > 100 µM
- GI50 [31]: 7.8 µM
- TGI [31]: > 100000 nM
- GI50 [32]: 5.84 µM
- TGI [32]: > 100 µM
- GI50 [33]: 3650 nM
- TGI [33]: 17.9 µM
- GI50 [34]: 9.53 µM
- TGI [34]: > 100 µM
- GI50 [35]: 3500 nM
- TGI [35]: > 100 µM
- GI50 [36]: 3410 nM
- TGI [36]: > 100000 nM
- GI50 [37]: 4700 nM
- TGI [37]: > 100 µM
- GI50 [38]: 4980 nM
- TGI [38]: 97.4 µM
- GI50 [39]: 2900 nM
- TGI [39]: > 100 µM
- GI50 [40]: 3190 nM
- TGI [40]: 23.2 µM
- GI50 [41]: 3010 nM
- TGI [41]: 23 µM
- GI50 [42]: 49.8 µM
- TGI [42]: > 100 µM
- GI50 [43]: 3750 nM
- TGI [43]: > 100 µM
- GI50 [44]: 2490 nM
- TGI [44]: > 100 µM
- GI50 [45]: 2410 nM
- TGI [45]: 8.52 µM
- GI50 [46]: 5300 nM
- TGI [46]: > 100 µM
- GI50 [47]: 3920 nM
- TGI [47]: > 100 µM
- GI50 [48]: 4410 nM
- TGI [48]: > 100000 nM
- GI50 [49]: 1990 nM
- TGI [49]: 7.51 µM
- GI50 [50]: 7.36 µM
- TGI [50]: > 100 µM
- GI50 [51]: 775 nM
- TGI [51]: 14.4 µM
- GI50 [52]: 2940 nM
- TGI [52]: 15.7 µM
- GI50 [53]: 4600 nM
- TGI [53]: > 100 µM
- GI50 [54]: 788 nM
- TGI [54]: 4.49 µM
- GI50 [55]: 6.52 µM
- TGI [55]: > 100 µM

Compound: O=C(N/N=C/c1ccco1)c1[nH]c2ccc(Br)cc2c1-c1ccccc1
- GI50 [1]: 143 nM
- TGI [1]: 1.23 µM
- GI50 [2]: 48.5 nM
- TGI [2]: 11.9 µM
- GI50 [3]: 8.76 µM
- TGI [3]: 25.4 µM
- GI50 [4]: 403 nM
- TGI [4]: 16.9 µM
- GI50 [5]: 192 nM
- TGI [5]: 11.8 µM
- GI50 [6]: 302 nM
- TGI [6]: 22.4 µM
- GI50 [7]: 0.403 µM
- TGI [7]: 14.2 µM
- GI50 [8]: 326 nM
- TGI [8]: 15.4 µM
- GI50 [9]: 238 nM
- TGI [9]: 27.1 µM
- GI50 [10]: 281 nM
- TGI [10]: 12.7 µM
- GI50 [11]: 0.975 µM
- TGI [11]: 27.9 µM
- GI50 [12]: 1300 nM
- TGI [12]: 27.3 µM
- GI50 [13]: 0.988 µM
- TGI [13]: 26.2 µM
- GI50 [14]: 212 nM
- TGI [14]: 12.8 µM
- GI50 [15]: 67.3 nM
- TGI [15]: 11.1 µM
- GI50 [16]: 187 nM
- TGI [16]: 2800 nM
- GI50 [17]: 1.61 µM
- TGI [17]: 18 µM
- GI50 [18]: 267 nM
- TGI [18]: 15.4 µM
- GI50 [19]: 348 nM
- TGI [19]: 16.9 µM
- GI50 [20]: 234 nM
- TGI [20]: 29.5 µM
- GI50 [21]: 165 nM
- TGI [21]: 21.9 µM
- GI50 [22]: 327 nM
- TGI [22]: 10.4 µM
- GI50 [23]: 251 nM
- TGI [23]: 16.5 µM
- GI50 [24]: 135 nM
- TGI [24]: 503 nM
- GI50 [25]: 411 nM
- TGI [25]: 12.6 µM
- GI50 [26]: 1410 nM
- TGI [26]: 26.9 µM
- GI50 [27]: 0.437 µM
- TGI [27]: 17.3 µM
- GI50 [28]: 72.4 nM
- TGI [28]: 13.6 µM
- GI50 [29]: 105 nM
- TGI [29]: 17.3 µM
- GI50 [30]: 201 nM
- TGI [30]: 4.53 µM
- GI50 [31]: 0.292 µM
- TGI [31]: 2970 nM
- GI50 [56]: 211 nM
- TGI [56]: 21.3 µM
- GI50 [32]: 0.191 µM
- TGI [32]: 14.3 µM
- GI50 [33]: 265 nM
- TGI [33]: 11.7 µM
- GI50 [34]: 0.763 µM
- TGI [34]: 13.2 µM
- GI50 [35]: 106 nM
- TGI [35]: 10.7 µM
- GI50 [36]: 147 nM
- TGI [36]: 1700 nM
- GI50 [37]: 309 nM
- TGI [37]: 12 µM
- GI50 [38]: 240 nM
- TGI [38]: 9.41 µM
- GI50 [39]: 46.4 nM
- TGI [39]: 11.1 µM
- GI50 [40]: 133 nM
- TGI [40]: 0.644 µM
- GI50 [57]: 281 nM
- TGI [57]: 14.9 µM
- GI50 [41]: 226 nM
- TGI [41]: 0.695 µM
- GI50 [42]: 0.735 µM
- TGI [42]: 21.1 µM
- GI50 [43]: 309 nM
- TGI [43]: 15.9 µM
- GI50 [44]: 85.9 nM
- TGI [44]: 11.8 µM
- GI50 [45]: 91 nM
- TGI [45]: 0.482 µM
- GI50 [46]: 162 nM
- TGI [46]: 3.23 µM
- GI50 [47]: 252 nM
- TGI [47]: 14.7 µM
- GI50 [48]: 220 nM
- TGI [48]: 1190 nM
- GI50 [49]: 42.5 nM
- TGI [49]: 0.225 µM
- GI50 [50]: 0.32 µM
- TGI [50]: 17.6 µM
- GI50 [58]: 177 nM
- TGI [58]: 5.77 µM
- GI50 [51]: 52.7 nM
- TGI [51]: 5.1 µM
- GI50 [52]: 200 nM
- TGI [52]: > 26.9 µM
- GI50 [53]: 89.9 nM
- TGI [53]: 11.7 µM
- GI50 [55]: 0.303 µM
- TGI [55]: 14.7 µM
